US20250288584A1, “COMBINATIONS COMPRISING POSITIVE ALLOSTERIC MODULATORS OR ORTHOSTERIC AGONISTS OF METABOTROPIC GLUTAMATERGIC RECEPTOR SUBTYPE 2 AND THEIR USE” (JANSSEN PHARMACEUTICA NV, priority 2014, published 2025)
Values joined by “and” are separate entries in the source; they are usually repeats but may differ in a detail not shown here. Identical values can stand only once. “Also recorded” adds a separate entry of the source.

What was measured:
Format in all cases: in vivo, mice
[1] = Minimal motor impairment (rotarod)
Experimental: Acute MMI was assessed by a combination of direct observations of the animal for overt symptoms of the animal's neurological or muscular function. In mice, the rotarod procedure was used to disclose minimal muscular or neurological impairment. When a mouse is placed on a rod that rotates at a speed of 6 rpm, the animal can maintain its equilibrium for long periods of time. The animal was considered toxic if it fell off this rotating rod three times during a 1 min period.
In the determination of an ED50 or TD50 for each test compound, the first dose administered is usually the same dose as that used in a successful TPE determination.
If the initial dose employed was effective or toxic in more than 50% of animals, the next dose would be one-half that of the initial dose; if the initial dose was effective or toxic in less than 50% of animals, the following dose would be twice that of the initial dose. Third and fourth doses were selected to produce an evenly spaced dose response line. There should be a minimum of 4 points either including or lying between 0 and 100%.

[2] = tested on: 6 Hz (32 mA) psychomotor seizures; experiment: 6 Hz psychomotor seizure test, 32 mA (incl. TPE determination)
Experimental: Test compounds were administered using an optimal fluid volume to body fluid ratio. Test compounds were administered to mice in a volume of 0.01 mL/g of body weight (White H. S., et al., General Principles: Experimental selection, quantification, and evaluation of antiepileptic drugs, in Antiepileptic Drugs, Fourth Edition, […], and B. S. Meldrum, Editors. 1995, Raven Press, Ltd.: New York, pp. 99-110). For subcutaneous (s.c.) administration, the test compounds were administered into a loose fold of skin along the back of the animal except compound 6-b, which was administered orally (p.o). […] The animals were maintained on an adequate diet (Prolab RMH 3000) and allowed free access to food and water, except during the short time they were removed from their cage for testing. Animals newly received in the laboratory were allowed sufficient time to correct for possible food and water restriction incurred during transit before being employed in testing. All mice were housed in plastic cages in specially constructed rooms with controlled humidity, exchange of air and controlled lighting (12 hours on-12 hours off). The animals were housed, fed, and handled in a manner consistent with the recommendations in the National Council Publication, “Guide for the Care and Use of Laboratory Animals”. In the determination of an ED50 or TD50 for each test compound, the first dose administered is usually the same dose as that used in a successful TPE determination. […] Third and fourth doses were selected to produce an evenly spaced dose response line. […] TPE was determined using the 6 Hz (32 mA) assay. […] The 6 Hz seizure test is used as a model of pharmacoresistant limbic seizures. […] Focal seizures were induced in mice via corneal stimulation (6 Hz, 0.2 msec rectangular pulse, 3 sec duration; Barton et al. 2001). Mice were tested at either 32 mA or 44 mA. […] The seizures that arise from corneal stimulation in this assay are characterized by a minimal clonic phase followed by stereotyped automatistic behaviors including stun, forelimb clonus, twitching of the vibrissae, and Straub-tail. Animals not displaying these behaviors were considered protected.

[3] = tested on: 6 Hz (44 mA) psychomotor seizures; experiment: 6 Hz psychomotor seizure test, 44 mA (alone, combination with LEV, isobolographic study)
Experimental: Test compounds were administered using an optimal fluid volume to body fluid ratio. Test compounds were administered to mice in a volume of 0.01 mL/g of body weight (White H. S., et al., General Principles: Experimental selection, quantification, and evaluation of antiepileptic drugs, in Antiepileptic Drugs, Fourth Edition, […], and B. S. Meldrum, Editors. 1995, Raven Press, Ltd.: New York, pp. 99-110). For subcutaneous (s.c.) administration, the test compounds were administered into a loose fold of skin along the back of the animal except compound 6-b, which was administered orally (p.o). […] The animals were maintained on an adequate diet (Prolab RMH 3000) and allowed free access to food and water, except during the short time they were removed from their cage for testing. Animals newly received in the laboratory were allowed sufficient time to correct for possible food and water restriction incurred during transit before being employed in testing. All mice were housed in plastic cages in specially constructed rooms with controlled humidity, exchange of air and controlled lighting (12 hours on-12 hours off). The animals were housed, fed, and handled in a manner consistent with the recommendations in the National Council Publication, “Guide for the Care and Use of Laboratory Animals”. In the determination of an ED50 or TD50 for each test compound, the first dose administered is usually the same dose as that used in a successful TPE determination. […] Third and fourth doses were selected to produce an evenly spaced dose response line. […] The 6 Hz seizure test is used as a model of pharmacoresistant limbic seizures. […] Focal seizures were induced in mice via corneal stimulation (6 Hz, 0.2 msec rectangular pulse, 3 sec duration; Barton et al. 2001). Mice were tested at either 32 mA or 44 mA. […] The seizures that arise from corneal stimulation in this assay are characterized by a minimal clonic phase followed by stereotyped automatistic behaviors including stun, forelimb clonus, twitching of the vibrissae, and Straub-tail. Animals not displaying these behaviors were considered protected. […] In addition to recording the efficacy and toxicity data for these compounds alone or in combination, both plasma and brain samples were collected from each of the groups for pharmacokinetic/pharmacokinetic analysis. No pharmacokinetic interaction was observed based on compound levels in the plasma and brain samples (data not shown). Isobolographic studies were conducted for the combined administration of Co. […] Studies were conducted according to previously described methods (Madsen et al. 2011). Initial ED50 values were determined for both Co. […] Co. […] Doses used were proportional to calculated ED50 values. […] Experimental treatment doses (see Table 4) were based on theoretical values and adjusted according to observed effects. Experimentally determined ED50 (+SEM) values for each fixed dose-ratio combination were compared to the theoretical values (t-test) for statistical purposes. […] Subsequently, the experimental combined doses were determined for the same paradigms in the 6 Hz seizure test (Table 4 below).

corneal kindled seizures = experiment: Mouse corneal kindling model; settings: 100 mg/kg s.c.; Racine score 0-5
Experimental: After the mice reached a stable kindled state, the test compound or vehicle was administered and, at the previously determined TPE, each animal was given the electrical stimulus indicated above. […] One dose of LEV and two doses of Co.

[4] = 20 mg/kg s.c., 0.5 h, 32 mA group
[5] = 40 mg/kg s.c., 0.5 h, 32 mA group

Cc1cc(-c2nc(CN3CCNCC3)no2)cc2c1C(=O)N(Cc1ccc(OC(F)(F)F)cc1)C2 [CAS 1092453-15-0, 2,3-dihydro-7-methyl-5-[3-(1-piperazinylmethyl)-1,2,4-oxadiazol-5-yl]-2-[[4-(trifluoromethoxy)phenyl]methyl]-1H-isoindol-1-one, reference compound]
# rotarod motor impairment/# tested ([1]; 20 mg/kg s.c., 0.25 h, 32 mA group): 0/4 | # rotarod motor impairment/# tested [1, 4]: 0/4 | # rotarod motor impairment/# tested ([1]; 20 mg/kg s.c., 1 h, 32 mA group): 0/4 | # rotarod motor impairment/# tested ([1]; 20 mg/kg s.c., 2 h, 32 mA group): 0/4 | # rotarod motor impairment/# tested ([1]; 20 mg/kg s.c., 4 h, 32 mA group): 0/4 | # rotarod motor impairment/# tested ([1]; 40 mg/kg s.c., 0.25 h, 32 mA group): 0/4 | # rotarod motor impairment/# tested [1, 5]: 0/4 | # rotarod motor impairment/# tested ([1]; 40 mg/kg s.c., 1 h, 32 mA group): 0/4 | # rotarod motor impairment/# tested ([1]; 40 mg/kg s.c., 2 h, 32 mA group): 0/4 | # rotarod motor impairment/# tested ([1]; 40 mg/kg s.c., 4 h, 32 mA group): 0/4 | # rotarod motor impairment/# tested ([1]; 80 mg/kg s.c., 0.25 h, 32 mA group): 0/4 | # rotarod motor impairment/# tested ([1]; 80 mg/kg s.c., 0.5 h, 32 mA group): 0/4 | # rotarod motor impairment/# tested ([1]; 80 mg/kg s.c., 1 h, 32 mA group): 1/4 | # protected/# tested ([2]; 20 mg/kg s.c., 0.25 h): 1/4 | # protected/# tested ([2]; 20 mg/kg s.c., 0.5 h): 0/4 | # protected/# tested ([2]; 20 mg/kg s.c., 1 h): 1/4 | # protected/# tested ([2]; 20 mg/kg s.c., 2 h): 0/4 | # protected/# tested ([2]; 20 mg/kg s.c., 4 h): 0/4 | # protected/# tested ([2]; 40 mg/kg s.c., 0.25 h): 1/4 | # protected/# tested ([2]; 40 mg/kg s.c., 0.5 h): 1/4 | # protected/# tested ([2]; 40 mg/kg s.c., 1 h): 1/4 | # protected/# tested ([2]; 40 mg/kg s.c., 2 h): 0/4 | # protected/# tested ([2]; 40 mg/kg s.c., 4 h): 0/4 | # protected/# tested ([2]; 80 mg/kg s.c., 0.25 h): 0/4 | # protected/# tested ([2]; 80 mg/kg s.c., 0.5 h): 0/4 | # protected/# tested ([2]; 80 mg/kg s.c., 1 h): 1/4 | activity in the 6 Hz 32 mA test ([2]; result in words): Low activity; also recorded: did not show activity | activity in the 6 Hz 44 mA test ([3]; result in words): did not show activity | pharmacodynamic interaction with LEV in the 6 Hz model ([3]; result in words): did not display synergy

CCCCn1ccc(N2CCC(c3ccccc3)CC2)c(Cl)c1=O [Co. No. 2-a]
# rotarod motor impairment/# tested ([1]; 2.5 mg/kg s.c., 0.5 h, 32 mA group): 1/8 | # rotarod motor impairment/# tested ([1]; 5 mg/kg s.c., 0.5 h, 32 mA group): 0/8 | # rotarod motor impairment/# tested ([1]; 10 mg/kg s.c., 0.5 h, 32 mA group): 0/8 | # rotarod motor impairment/# tested ([1]; 10 mg/kg s.c., 0.5 h, 44 mA group): 1/8 and 0/8 | # rotarod motor impairment/# tested ([1]; 15 mg/kg s.c., 0.5 h, 44 mA group): 1/8 | # rotarod motor impairment/# tested [1, 4]: 3/8 | # rotarod motor impairment/# tested ([1]; 20 mg/kg s.c., 0.5 h, 44 mA group): 0/8 | # rotarod motor impairment/# tested [1, 5]: 2/8 | # rotarod motor impairment/# tested ([1]; 40 mg/kg s.c., 0.5 h, 44 mA group): 4/8 | TD50 at 0.5 h ([1]; mouse, in vivo, sc, rotarod): > 40 mg/kg | # protected/# tested ([2]; 2.5 mg/kg s.c., 0.5 h): 0/8 | # protected/# tested ([2]; 5 mg/kg s.c., 0.5 h): 0/8 | # protected/# tested ([2]; 10 mg/kg s.c., 0.5 h): 4/8 | # protected/# tested ([2]; 20 mg/kg s.c., 0.5 h): 6/8 | # protected/# tested ([2]; 40 mg/kg s.c., 0.5 h): 8/8 | ED50 (95% CI) 32 mA ([2]; s.c., at TPE): ED50 (95% CI): 12.2 mg/kg (8.4 to 17.4) | activity when administered alone ([3]; 10 mg/kg s.c.): ^aCo. No. 2-a (s.c.) 10 mg/kg tested in combination with LEV (i.p.); Co. No. 2-a 10 mg/kg, not active when administered alone; also recorded: ^bCo. No. 2-a (s.c.) 10 mg/kg tested in combination with LEV (i.p.); Co. No. 2-a 10 mg/kg, not active when administered alone | % protection 44 mA ([3]; 100 mg/kg s.c.): 50% protection at | responders at 10 mg/kg ([3]; Mus musculus, sc, 0.5 h, 10 mg/kg s.c., 0.5 h, read-out: # protected/# tested (converted)): 0% | responders at 15 mg/kg ([3]; Mus musculus, sc, 0.5 h, 15 mg/kg s.c., 0.5 h, read-out: # protected/# tested (converted)): 25% | responders at 20 mg/kg ([3]; Mus musculus, sc, 0.5 h, 20 mg/kg s.c., 0.5 h, read-out: # protected/# tested (converted)): 37.5% | responders at 40 mg/kg ([3]; Mus musculus, sc, 0.5 h, 40 mg/kg s.c., 0.5 h, read-out: # protected/# tested (converted)): 100% | ED50 ([3]; Mus musculus, sc, at TPE, compound alone, read-out: ED50 (95% CI) 44 mA): 21 mg/kg | Seizure score (dose) Corneal kindling (corneal kindled seizures): 4.4
